This passage reports melting point, pest or weed control and plant injury results from patent US12077503B2, “Substituted cyclic amides and their use as herbicides” (FMC CORPORATION, priority 2015, dated 2024).

Molecules are shown by their SMILES. Like-named read-outs stand apart in the source and are kept apart here.

In data set [1] the test system is giant foxtail (Setaria faberii). Description: Test A postemergence. The data set is classed as in vivo. Particulars: Setaria faberi, post-emergence, 240 h; for pest or weed control at 125 g/ha: 125 g ai/ha; for pest or weed control at 500 g/ha: 500 g ai/ha, 0 to 100 scale, 0 is no effect, 100 is complete control. The method in brief:
(§1)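 Greenhouse, ~10 d after spray; visual injury vs untreated controls, 0 = no effect, 100 = complete control. Preemergence: directed soil spray over planted seeds. Postemergence: plants 2–10 cm, 1–2 leaf stage. Loam/sand blend. Compound in non-phytotoxic solvent with surfactant.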

In data set [2] the test system is ryegrass, Italian (Italian ryegrass, Lolium multiflorum). Nature of the data set: Test A postemergence. The data set is classed as in vivo. Particulars: Lolium multiflorum, post-emergence, 240 h; for pest or weed control at 125 g/ha: 125 g ai/ha; for pest or weed control at 500 g/ha: 500 g ai/ha, 0 to 100 scale, 0 is no effect, 100 is complete control. The method in brief: as §1

Data set [3] deals with blackgrass (Alopecurus myosuroides). Nature of the data set: Test A postemergence. The data set is classed as in vivo. Particulars: Alopecurus myosuroides, post-emergence, 240 h; for pest or weed control at 125 g/ha: 125 g ai/ha; for pest or weed control at 500 g/ha: 500 g ai/ha, 0 to 100 scale, 0 is no effect, 100 is complete control. The procedure, abridged: as §1
For data set [4], the system named is wheat (Triticum aestivum). Description: Test A postemergence. The data set is classed as in vivo. Particulars: Triticum aestivum, post-emergence, 240 h; for plant injury at 125 g/ha: 125 g ai/ha; for plant injury at 500 g/ha: 500 g ai/ha, 0 to 100 scale, 0 is no effect, 100 is complete control. The method in brief: as §1
The test system of the next data set is Kochia (Kochia scoparia). Nature of the data set: Test A postemergence. The data set is classed as in vivo. Particulars: Bassia scoparia, post-emergence, 240 h; for pest or weed control at 125 g/ha: 125 g ai/ha; for pest or weed control at 500 g/ha: 500 g ai/ha, 0 to 100 scale, 0 is no effect, 100 is complete control. The procedure, abridged:
as §1

The subject of data set [5] is pigweed (Amaranthus retroflexus). Description: Test A postemergence. The data set is classed as in vivo. Particulars: Amaranthus retroflexus, post-emergence, 240 h; for pest or weed control at 125 g/ha: 125 g ai/ha; for pest or weed control at 500 g/ha: 500 g ai/ha, 0 to 100 scale, 0 is no effect, 100 is complete control. The method in brief: as §1
Setting [6] is: Postemergence, visual injury after approximately 10 d, 0 to 100 scale where 0 is no effect and 100 is complete control, read-out: Plant response rating, Foxtail, Giant.
Setting [7] is: Postemergence, visual injury after approximately 10 d, 0 to 100 scale where 0 is no effect and 100 is complete control, read-out: Plant response rating, Ryegrass, Italian.
Where [8] appears, read: Postemergence, visual injury after approximately 10 d, 0 to 100 scale where 0 is no effect and 100 is complete control, read-out: Plant response rating, Blackgrass.
The mark [9] stands for this setting: Postemergence, visual injury after approximately 10 d, 0 to 100 scale where 0 is no effect and 100 is complete control, read-out: Plant response rating, Wheat.
Setting [10] is: Postemergence, visual injury after approximately 10 d, 0 to 100 scale where 0 is no effect and 100 is complete control, read-out: Plant response rating, Pigweed.
Setting [11] is: postemergence, visual injury rating after approximately 10 d, read-out: Foxtail, Giant plant response rating (0 to 100 scale, 0 no effect, 100 complete control).
Where [12] appears, read: postemergence, visual injury rating after approximately 10 d, read-out: Ryegrass, Italian plant response rating (0 to 100 scale, 0 no effect, 100 complete control).
Setting [13] is: postemergence, visual injury rating after approximately 10 d, read-out: Blackgrass plant response rating (0 to 100 scale, 0 no effect, 100 complete control).
The mark [14] stands for this setting: postemergence, visual injury rating after approximately 10 d, read-out: Wheat plant response rating (0 to 100 scale, 0 no effect, 100 complete control).
The mark [15] stands for this setting: postemergence, visual injury rating after approximately 10 d, read-out: Kochia plant response rating (0 to 100 scale, 0 no effect, 100 complete control).
Setting [16] is: postemergence, visual injury rating after approximately 10 d, read-out: Pigweed plant response rating (0 to 100 scale, 0 no effect, 100 complete control).
The mark [17] stands for this setting: postemergence, visual injury on 0 to 100 scale (0 no effect, 100 complete control), approx. 10 d, read-out: Foxtail, Giant plant response rating.
Setting [18] is: postemergence, read-out: Foxtail, Giant plant response rating.
Where [19] appears, read: postemergence, visual injury on 0 to 100 scale (0 no effect, 100 complete control), approx. 10 d, read-out: Ryegrass, Italian plant response rating.
[20] abbreviates: postemergence, read-out: Ryegrass, Italian plant response rating.
Where [21] appears, read: postemergence, visual injury on 0 to 100 scale (0 no effect, 100 complete control), approx. 10 d, read-out: Blackgrass plant response rating.
Setting [22] is: postemergence, read-out: Blackgrass plant response rating.
Where [23] appears, read: postemergence, visual injury on 0 to 100 scale (0 no effect, 100 complete control), approx. 10 d, read-out: Wheat plant response rating.
The mark [24] stands for this setting: postemergence, read-out: Wheat plant response rating.
The mark [25] stands for this setting: postemergence, visual injury on 0 to 100 scale (0 no effect, 100 complete control), approx. 10 d, read-out: Kochia plant response rating.
The mark [26] stands for this setting: postemergence, read-out: Kochia plant response rating.
[27] abbreviates: postemergence, visual injury on 0 to 100 scale (0 no effect, 100 complete control), approx. 10 d, read-out: Pigweed plant response rating.
Where [28] appears, read: postemergence, read-out: Pigweed plant response rating.

Take `O=C1NC[C@H](c2cc(C(F)(F)F)ccn2)[C@H]1C(=O)Nc1ccccc1F` [Compound 948]: the melting point – broadly, the temperature, or range, at which the solid turns liquid – fell in the range of 115 to 119 °C. The pest or weed control at 125 g/ha in data set [1] (setting [6]) turned out to be 70%. The pest or weed control at 125 g/ha in data set [2] (setting [7]) worked out at 0%. For the same compound, the pest or weed control at 125 g/ha in data set [3] (setting [8]) is 0%. In addition, in data set [4] (setting [9]), the plant injury at 125 g/ha turned out to be 0%. Also, the pest or weed control at 125 g/ha in the data set with Kochia (Kochia scoparia) (Postemergence, visual injury after approximately 10 d, 0 to 100 scale where 0 is no effect and 100 is complete control, read-out: Plant response rating, Kochia) was 0%. Further, the pest or weed control at 125 g/ha in data set [5] (setting [10]) worked out at 0%.
Compound `Cc1ccc([C@H]2CCNC(=O)[C@@H]2C(=O)Nc2cccc(F)c2F)cc1` [Compound 973] came in with a melting point of 174 to 176 °C. In data set [1] (setting [6]), the pest or weed control at 125 g/ha was found to be 70%. In data set [2] (setting [7]), the pest or weed control at 125 g/ha turned out to be 20%. Further, the pest or weed control at 125 g/ha in data set [3] (setting [8]) was determined as 60%. Moreover, in data set [4] (setting [9]), the plant injury at 125 g/ha is 0%. In addition, in data set [5] (setting [10]), the pest or weed control at 125 g/ha amounted to 0%.
For `COc1cccc(C2CN(C)C(=O)C2C(=O)Nc2cccc(F)c2F)c1` (centres unmarked) [Compound 886], the melting point fell in the range of 137 to 140 °C. For the same compound, in data set [1] (setting [11]), the pest or weed control at 125 g/ha is 90%. Also, in data set [2] (setting [12]), the pest or weed control at 125 g/ha stood at 20%. For the same compound, the pest or weed control at 125 g/ha in data set [3] (setting [13]) came to 20%. In addition, the plant injury at 125 g/ha in data set [4] (setting [14]) was determined as 0%. Also, in the data set on Kochia (Kochia scoparia) (setting [15]), the pest or weed control at 125 g/ha was 0%. Besides, in data set [5] (setting [16]), the pest or weed control at 125 g/ha came to 0%.
With `CN1CC(c2cccc(Br)c2)C(C(=O)Nc2ccccc2F)C1=O` (centres unmarked) [Compound 1132], the melting point lay within 142 to 146 °C. For the same compound, in data set [1] (setting [17]), the pest or weed control at 125 g/ha came out at 80%. The pest or weed control at 500 g/ha in data set [1] (setting [18]) came out at 90%. In data set [2] (setting [19]), the pest or weed control at 125 g/ha came out at 0%. In data set [2] (setting [20]), the pest or weed control at 500 g/ha worked out at 30%. Further, in data set [3] (setting [21]), the pest or weed control at 125 g/ha was determined as 30%. The pest or weed control at 500 g/ha in data set [3] (setting [22]) came to 50%. Moreover, in data set [4] (setting [23]), the plant injury at 125 g/ha came out at 30%. Also, the plant injury at 500 g/ha in data set [4] (setting [24]) was found to be 70%. Besides, the pest or weed control at 125 g/ha in the data set on Kochia (Kochia scoparia) (setting [25]) was found to be 0%. Further, the pest or weed control at 500 g/ha with Kochia (Kochia scoparia) (setting [26]) is 0%. In data set [5] (setting [27]), the pest or weed control at 125 g/ha stood at 0%. The pest or weed control at 500 g/ha in data set [5] (setting [28]) stood at 0%.
With `CCc1cc([C@H]2CNC(=O)[C@@H]2C(=O)Nc2ccccc2F)cs1` [Compound 913], the melting point lay within 96 to 100 °C. For the same compound, the pest or weed control at 125 g/ha in data set [1] (setting [11]) stood at 30%. The pest or weed control at 125 g/ha in data set [2] (setting [12]) was determined as 0%. For the same compound, in data set [3] (setting [13]), the pest or weed control at 125 g/ha was determined as 0%. In data set [4] (setting [14]), the plant injury at 125 g/ha was found to be 0%. For the same compound, in the data set with Kochia (Kochia scoparia) (setting [15]), the pest or weed control at 125 g/ha was 0%. Besides, in data set [5] (setting [16]), the pest or weed control at 125 g/ha came to 0%.
In turn, `O=C1NC[C@H](c2ccc(F)c(OC(F)(F)C(F)(F)Br)c2)[C@H]1C(=O)Nc1ccccc1F` [Compound 1134] gave a melting point of 133 to 137 °C. For the same compound, the pest or weed control at 125 g/ha in data set [1] (setting [17]) stood at 30%. Also, the pest or weed control at 500 g/ha in data set [1] (setting [18]) was determined as 80%. The pest or weed control at 125 g/ha in data set [2] (setting [19]) came to 20%. The pest or weed control at 500 g/ha in data set [2] (setting [20]) was 20%. Moreover, the pest or weed control at 125 g/ha in data set [3] (setting [21]) came out at 20%. Moreover, in data set [3] (setting [22]), the pest or weed control at 500 g/ha was found to be 50%. Also, the plant injury at 125 g/ha in data set [4] (setting [23]) came out at 0%. Also, the plant injury at 500 g/ha in data set [4] (setting [24]) was determined as 20%. The pest or weed control at 125 g/ha in the data set with Kochia (Kochia scoparia) (setting [25]) was 0%. Moreover, the pest or weed control at 500 g/ha in the data set with Kochia (Kochia scoparia) (setting [26]) is 30%. The pest or weed control at 125 g/ha in data set [5] (setting [27]) worked out at 0%. Further, the pest or weed control at 500 g/ha in data set [5] (setting [28]) came to 20%.
